Data published in article PMC7913927, “Leishmanicidal Activity of Betulin Derivatives in Leishmania amazonensis; Effect on Plasma and Mitochondrial Membrane Potential, and Macrophage Nitric Oxide and Superoxide Production” (Microorganisms, 2021).

Tests used:
[1] = tested on: L. (L.) amazonensis LTB0016 promastigotes; test: Promastigote in vitro susceptibility (Alamar Blue/resazurin), reference strain; format: cell-based, Leishmania amazonensis; conditions: Leishmania amazonensis; LTB0016 promastigotes, 72 h; read-out: Promastigote (GI50) mean
Procedure: The fluorometric method of Alamar Blue® (resazurin) was used. Promastigotes grown in biphasic agar-blood medium, at the exponential phase of growth, were seeded in flat-bottom 96-well culture plates, at a cell density of 1 × 10^6 parasites mL^−1 (200,000 parasites/well), in 180 µL of RPMIc without phenol red. Subsequently, either a sole concentration (50 µM), or increasing concentrations of compounds or drugs were applied, according to each treatment group, in volumes of 2 µL. Plates were kept at 26 °C, in a humid chamber, for 72 h. […] Live parasites are metabolically active and capable of reducing non-fluorescent resazurin (blue) to fluorescent resorufin (red). Fluorescence intensity is directly proportional to the number of viable cells. […] At least two independent experiments were performed in duplicate. The effect of trivalent antimonial [SbIII, potassium antimonyl tartrate trihydrate, Sigma-Aldrich, (St. Louis, MO, USA)] was included as positive control of the assay.

[2] = tested on: LTB0016 intracellular amastigotes in J774.1 macrophages; test: Macrophage-amastigote model, reference strain; format: cell-based, Leishmania amazonensis
Procedure: (§1) We used a previously described methodology, with some modifications. Macrophage monolayers, grown in RMPIc medium, for 3 days, were detached from the bottom of the culture chamber, by physical treatment (low temperature and light strokes). Obtained macrophages were seeded in flat-bottom 96-well culture plates, at a density of 2 × 10^5 cells mL^−1 (40,000 macrophages/well), in a final volume of 200 µL. Plates were incubated for 2 h, and the supernatant was discarded to remove non-adhered macrophages. Medium was replaced with stationary-phase promastigotes suspended in 200 µL of RPMIc (2 × 10^6 parasites mL^−1, 400,000 parasites/well), at a macrophage: parasite ratio 1:10 [40]. The plates were incubated for 4 h. Afterwards the medium was replaced with fresh RPMIc and increasing concentrations of compounds or drugs tested were applied, in volumes of 2 µL, according to the different treatment groups. Plates were kept for 72 h, at 37 °C and 5% CO2. The medium was discarded and the wells were washed twice with PBS. Next, a Giemsa staining was performed in situ. It consisted of adding 200 µL of methanol/well, incubating for 5 min, discarding the fixative, and letting it dry at room temperature. Later, the Giemsa solution (10% in PBS w/v, 200 µL/well) was added, incubated for 10 min, and washed with PBS, allowing it to dry. Finally, the bottom of the plates was detached by percussion and the circular bottoms (wells) were fixed to slides with Permount synthetic resin, for later evaluation (Alcazar W., manuscript in preparation). Cell counting was performed with a 100× immersion objective. A minimum of 200 random macrophages were examined. The percentage of infected macrophages (% infection) and the average number of amastigotes present in infected macrophages (amastigotes) were determined. […] The infection rate represents the number of intracellular amastigotes per 100 macrophages evaluated. Additionally, the GI50 for the decrease in the infection rate was calculated. At least three independent experiments were performed. The effect of amphotericin-B (AmB) [Sigma-Aldrich, (St. Louis, MO, USA)] was included as positive control of the assay.

[3] = Cytotoxicity (Alamar Blue) in macrophages; format: cell-based, murine; conditions: mouse, J774.1 macrophages
Procedure: In flat-bottom 96-well culture plates, J774.1 macrophages were seeded at a cell density of 5 × 10^4 mL^−1 (10,000 macrophages/well) in 200 µL of RPMIc. After 24 h at 37 °C, 5% CO2, medium was replaced by 180 µL of RPMIc, without phenol red, and increasing concentrations of test compounds in 2-µL volumes. […] At least two independent experiments were performed in duplicate. Based on the inhibition of cell growth caused by the tested compounds, the percentage of growth inhibition compared to untreated cells was calculated. […] Selectivity indices (SI) were calculated, dividing the macrophage CC50 by the parasites GI50 (SI = CC50/GI50).

[4] = tested on: VE2000MM intracellular amastigotes in J774.1 macrophages; test: Macrophage-amastigote model, patient isolate VE2000MM; format: cell-based, Leishmania amazonensis
Procedure: as §1

[5] = tested on: VE98MR intracellular amastigotes in J774.1 macrophages; test: Macrophage-amastigote model, patient isolate VE98MR; format: cell-based, Leishmania amazonensis
Procedure: as §1

[6] = J774.1 CC50 / intracellular amastigote GI50, Table 2

C[C@@H]1[C@H](O)[C@@H](C)/C=C/C=C/C=C/C=C/C=C/C=C/C=C/[C@H](O[C@@H]2O[C@H](C)[C@@H](O)[C@H](N)[C@@H]2O)C[C@@H]2O[C@](O)(C[C@@H](O)C[C@@H](O)[C@H](O)CC[C@@H](O)C[C@@H](O)CC(=O)O[C@H]1C)C[C@H](O)[C@H]2C(=O)O [AmB, amphotericin-B, reference compound]
GI50 [1]: 0.068 µM | SI (CC50/GI50) LTB0016 [2, 6]: >500 | Growth (%) Exp1 Infección ([2]; LTB0016, 0.10 µM, 72 h, Exp1, % infected macrophages): 12.89% | Growth (%) Exp1 A/MØ ([2]; LTB0016, 0.10 µM, 72 h, Exp1, amastigotes per infected macrophage): 2.10 | Growth (%) Exp1 A/100MØ ([2]; LTB0016, 0.10 µM, 72 h, Exp1, infection index): 27.07 | Growth (%) Exp1 %Control ([2]; LTB0016, 0.10 µM, 72 h, Exp1, infection index vs DMSO): 10.32% | Growth (%) Exp2 Infección ([2]; LTB0016, 0.10 µM, 72 h, Exp2, % infected macrophages): 13.33% | Growth (%) Exp2 A/MØ ([2]; LTB0016, 0.10 µM, 72 h, Exp2, amastigotes per infected macrophage): 1.38 | Growth (%) Exp2 A/100MØ ([2]; LTB0016, 0.10 µM, 72 h, Exp2, infection index): 18.40 | Growth (%) Exp2 %Control ([2]; LTB0016, 0.10 µM, 72 h, Exp2, infection index vs DMSO): 8.65% | Growth (%) Exp3 Infección ([2]; LTB0016, 0.10 µM, 72 h, Exp3, % infected macrophages): 8.08% | Growth (%) Exp3 A/MØ ([2]; LTB0016, 0.10 µM, 72 h, Exp3, amastigotes per infected macrophage): 1.33 | Growth (%) Exp3 A/100MØ ([2]; LTB0016, 0.10 µM, 72 h, Exp3, infection index): 10.75 | Growth (%) Exp3 %Control ([2]; LTB0016, 0.10 µM, 72 h, Exp3, infection index vs DMSO): 6.05% | Average A/100MØ ([2]; LTB0016, 0.10 µM, 72 h, average of Exp1-3): 18.74 | GI50 ([2]; Leishmania amazonensis, J774.1, intracellular amastigotes, 72 h, Table 2, read-out: GI50 (µM) LTB0016): 0.02 µM | CC50 at 72 h [3]: > 10 µM | SI (CC50/GI50) VE2000MM [4, 6]: >125 | GI50 ([4]; Leishmania amazonensis, J774.1, intracellular amastigotes, 72 h, Table 2, read-out: GI50 (µM) VE2000MM): 0.08 µM | Growth (%) Exp1 %Control ([4]; VE2000MM, dose 0.10 µM, Exp1): 7.30% | Growth (%) Exp1 A/100MØ ([4]; VE2000MM, dose 0.10 µM, Exp1): 18.04 | Growth (%) Exp1 A/MØ ([4]; VE2000MM, dose 0.10 µM, Exp1): 1.70 | Growth (%) Exp1 Infección ([4]; VE2000MM, dose 0.10 µM, Exp1): 10.61% | Growth (%) Exp2 %Control ([4]; VE2000MM, dose 0.10 µM, Exp2): 9.84% | Growth (%) Exp2 A/100MØ ([4]; VE2000MM, dose 0.10 µM, Exp2): 23.78 | Growth (%) Exp2 A/MØ ([4]; VE2000MM, dose 0.10 µM, Exp2): 2.17 | Growth (%) Exp2 Infección ([4]; VE2000MM, dose 0.10 µM, Exp2): 10.96% | Growth (%) Exp3 %Control ([4]; VE2000MM, dose 0.10 µM, Exp3): 7.62% | Growth (%) Exp3 A/100MØ ([4]; VE2000MM, dose 0.10 µM, Exp3): 17.22 | Growth (%) Exp3 A/MØ ([4]; VE2000MM, dose 0.10 µM, Exp3): 2.00 | Growth (%) Exp3 Infección ([4]; VE2000MM, dose 0.10 µM, Exp3): 8.61% | Average A/100MØ ([4]; VE2000MM, dose 0.10 µM, average of Exp1-3): 19.68 | SI (CC50/GI50) VE98MR [5, 6]: >136 | GI50 ([5]; Leishmania amazonensis, J774.1, intracellular amastigotes, 72 h, Table 2, read-out: GI50 (µM) VE98MR): 0.073 µM | Growth (%) Exp1 %Control ([5]; VE98MR, dose 0.10 µM, Exp1): 10.60% | Growth (%) Exp1 A/100MØ ([5]; VE98MR, dose 0.10 µM, Exp1): 17.06 | Growth (%) Exp1 A/MØ ([5]; VE98MR, dose 0.10 µM, Exp1): 1.26 | Growth (%) Exp1 Infección ([5]; VE98MR, dose 0.10 µM, Exp1): 13.54% | Growth (%) Exp2 %Control ([5]; VE98MR, dose 0.10 µM, Exp2): 2.71% | Growth (%) Exp2 A/100MØ ([5]; VE98MR, dose 0.10 µM, Exp2): 5.60 | Growth (%) Exp2 A/MØ ([5]; VE98MR, dose 0.10 µM, Exp2): 1.16 | Growth (%) Exp2 Infección ([5]; VE98MR, dose 0.10 µM, Exp2): 4.83% | Growth (%) Exp3 %Control ([5]; VE98MR, dose 0.10 µM, Exp3): 6.21% | Growth (%) Exp3 A/100MØ ([5]; VE98MR, dose 0.10 µM, Exp3): 15.40 | Growth (%) Exp3 A/MØ ([5]; VE98MR, dose 0.10 µM, Exp3): 2.00 | Growth (%) Exp3 Infección ([5]; VE98MR, dose 0.10 µM, Exp3): 7.70% | Average A/100MØ ([5]; VE98MR, dose 0.10 µM, average of Exp1-3): 12.69
